Target: T1, Endothelial lipase (EL) (Homo sapiens, UniProt Q9Y5X9)
T1 construct: HT-1080 cells, which were transformed by RAGE technology (Athersys) to overexpress endogenous EL; endogenous in cells; conditioned medium used as the enzyme source
T1 sequence (Q9Y5X9 21-500): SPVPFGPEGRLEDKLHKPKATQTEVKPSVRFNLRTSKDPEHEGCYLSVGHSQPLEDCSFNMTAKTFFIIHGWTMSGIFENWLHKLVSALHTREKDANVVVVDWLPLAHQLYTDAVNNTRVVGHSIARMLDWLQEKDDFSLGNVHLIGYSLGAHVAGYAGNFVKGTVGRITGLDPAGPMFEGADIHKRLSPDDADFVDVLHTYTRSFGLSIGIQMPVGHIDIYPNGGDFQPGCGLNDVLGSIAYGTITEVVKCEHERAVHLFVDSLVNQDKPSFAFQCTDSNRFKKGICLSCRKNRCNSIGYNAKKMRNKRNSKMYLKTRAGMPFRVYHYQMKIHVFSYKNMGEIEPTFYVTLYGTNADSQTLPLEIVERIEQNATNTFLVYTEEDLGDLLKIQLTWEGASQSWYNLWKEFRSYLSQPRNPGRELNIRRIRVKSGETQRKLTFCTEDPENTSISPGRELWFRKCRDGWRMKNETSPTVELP
Assay: Endothelial lipase (EL) enzymatic assay with fluorescent substrate A10070 in DMPG vesicles
Type: biochemical
Conditions: range observed in the EL assay; read-out: EL IC50 values
In short: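 EL activity was followed as a fluorescence rate (488/530 nm, reads every 20 s for 10 min, linear slope) on A10070 doped at 0.05 mole fraction into sonicated DMPG vesicles. Compound was first incubated 20 min at 37 °C, pH 8.0 HEPES/CaCl2 buffer, with conditioned media from EL-overexpressing HT-1080 cells.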

## O=C(N[C@@H]1CCCc2cc(OCC(F)(F)F)ccc21)c1[nH]c(=O)[nH]c(=O)c1O [Example 256, (R)-5-hydroxy-2,6-dioxo-N-(6-(2,2,2-trifluoroethoxy)-1,2,3,4-tetrahydronaphthalen-1-yl)-1,2,3,6-tetrahydropyrimidine-4-carboxamide]
  IC50: ≤ 10 µM

Source: US9199946B2, “Pyrimidinone carboxamide inhibitors of endothelial lipase” (BRISTOL-MYERS SQUIBB COMPANY, priority 2012, dated 2015)
